Data on 24 molecules can be found in US8030487B2, “2-amino—5-substituted pyrimidine inhibitors” (TargeGen, Inc., priority 2006, dated 2011).

In test [1] the test system is retinal edema induced by intravitreal injection of VEGF. In words: Retinal edema (Method #2), induced by intravitreal VEGF. Format: in vivo, rat. Conditions: LE rats, 1% solution topical, vehicle 0.363. The protocol:
Retinal Edema (Method #2) Retinal edema was induced in rats by intravitreal injection of vascular endothelial growth factor (VEGF). LE rats were dosed topically (bilaterally) with either test compound or vehicle (10 μL eyedrops), followed by intravitreal injections of either saline (left eye) or VEGF (right eye). Five hours later, animals were again dosed topically with test compound or vehicle, and then injected i.p. with sodium fluorescein followed 45 later by ocular fluorophotometry to detect fluorescein leakage into the retina and vitreous chamber. EI was calculated according to the following formula: EI=(Fod−Fos)/Fos, where Fod=AUC value for fluorescence in the right eye, and Fos=AUC value for fluorescence in the left (saline injected) eye.

Test [2] relates to retinal neovascularization. In words: Retinal neovascularization, normoxia-hyperoxia-normoxia mouse pups. Conditions: C57BL/6 mouse pups. Format: in vivo. Here is the method: Retinal Neovascularization Retinal neovascularization was induced in mouse pups by cyclic exposure to normoxia-hyperoxia-normoxia. C57BL/6 mouse pups were exposed to hyperoxia (75% O2 environment) for 5 days starting at from postnatal day 7, then returned to a normoxic environment. Dosing was also initiated at this time (bilateral topical application of test compound or vehicle as a 10 μL eyedrops twice per day). After 5 days of dosing, retinal wholemounts were prepared and stained with a fluorescently labeled lectin that specifically stains murine endothelium. Digital images were captured by fluorescence microscopy and used to quantify total vascular area.

In test [3] the test system is retinal edema induced by retinal ischemia. In words: Retinal edema (Method #1), induced by retinal ischemia. The test is classed as in vivo, rat. Conditions: LE rats, 1% solution, topical bid × 5, retinal vein thrombosis; vehicle 5.2. Here is the method:
Retinal Edema (Method #1) Retinal edema was induced in rats by retinal ischemia. LE rats were injected i.v. with the photosensitizing dye Rose Bengal, followed by laser stimulation of a single retinal vein (in the right eye only) so as to induce thrombosis and thus retinal ischemia. Animals were dosed topically with either test compound or vehicle (10 μL eyedrops twice per day bilaterally) for a total of 5 dosings. Retinal edema was then measured by injecting animals i.p. with sodium fluorescein followed 45 later by ocular fluorophotometry to detect fluorescein leakage into the retina and vitreous chamber. An Edema Index (EI) was calculated according to the following formula: EI=(Fod−Fos)/Fos, where Fod=AUC value for fluorescence in the right eye, and Fos=AUC value for fluorescence in the left (treated but not thrombosed) eye.

The subject of test [4] is choroidal neovascularization. In words: Choroidal neovascularization induced by laser injury. The test is classed as in vivo, mouse. Conditions: C57BL/6 mice, 1% solution topical twice per day, 14 days; vehicle 16,192. The protocol:
Choroidal Neovascularization Choroidal neovasculariztion was induced in mice by laser injury. Laser photocoagulation was performed on the choroids of C57BL/6 mice, after which mice were dosed topically with test compound or vehicle for a total of 14 days (10 μL applied per eye twice per day). At the end of the 2 week dosing period, mice were perfused with fluorescein-labeled dextran (2×10^6 average molecular weight), eyes were removed and fixed in formalin, and choroidal flatmounts prepared. Laser injury sites were photographed by fluorescence microscopy and digital images were used to quantify the area of choroidal neovascularization.

The target in a further test is T1, human c-Src (Homo sapiens, UniProt P12931).
T1 construct: purchased Panvera/Invitrogen
T1 sequence (P12931 whole entry): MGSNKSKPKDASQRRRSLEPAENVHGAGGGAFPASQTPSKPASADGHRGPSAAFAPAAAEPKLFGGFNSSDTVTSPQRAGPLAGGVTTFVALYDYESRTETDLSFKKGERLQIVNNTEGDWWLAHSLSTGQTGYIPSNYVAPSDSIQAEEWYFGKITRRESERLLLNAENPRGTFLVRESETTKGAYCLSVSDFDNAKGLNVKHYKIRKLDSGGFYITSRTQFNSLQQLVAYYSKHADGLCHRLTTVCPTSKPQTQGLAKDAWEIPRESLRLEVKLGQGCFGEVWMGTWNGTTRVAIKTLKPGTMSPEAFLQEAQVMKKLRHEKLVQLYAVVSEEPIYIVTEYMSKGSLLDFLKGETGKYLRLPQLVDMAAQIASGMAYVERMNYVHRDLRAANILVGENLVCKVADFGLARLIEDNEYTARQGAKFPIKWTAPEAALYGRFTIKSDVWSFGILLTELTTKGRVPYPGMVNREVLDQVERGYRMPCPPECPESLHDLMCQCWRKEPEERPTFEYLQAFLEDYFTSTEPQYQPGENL
In words: Src kinase inhibition (KinaseGlo residual ATP). Format: biochemical. Conditions: ATP 3 μM, 90 min room temperature. Here is the method:
(§1) The ability of compounds of the present invention to inhibit the activity of various groups of kinases was tested. Kinases that were tested are described below. All kinase reactions were conducted in 96-well plates with a final reaction volume of 50 μl.
(§2) Recombinant human c-Src or Yes, or Fyn, or Lck (28 ng/well, Panvera/Invitrogen, Madison Wis.), ATP (3 μM), a tyrosine kinase substrate (PTK2, 250 μM, Promega Corp., Madison Wis.), and test agents (at concentrations ranging from about 1 nM/l to about 100 μM/l), in the presence of Src kinase reaction buffer (Upstate USA, Lake Placid N.Y.). After reacting for about 90 minutes at room temperature, residual ATP was determined using a luciferase-based assay (KinaseGlo, Promega Corp.) as a measure of kinase activity. Data from four wells were then averaged and used to determine IC50 values for the test compounds (Prism software package, GraphPad Software, San Diego Calif.).

In another test the target is T2, VEGFR2 (Homo sapiens, UniProt P35968).
T2 construct: purchased Cell Signaling/ProQinase
T2 sequence (P35968 20-1356, species assumed): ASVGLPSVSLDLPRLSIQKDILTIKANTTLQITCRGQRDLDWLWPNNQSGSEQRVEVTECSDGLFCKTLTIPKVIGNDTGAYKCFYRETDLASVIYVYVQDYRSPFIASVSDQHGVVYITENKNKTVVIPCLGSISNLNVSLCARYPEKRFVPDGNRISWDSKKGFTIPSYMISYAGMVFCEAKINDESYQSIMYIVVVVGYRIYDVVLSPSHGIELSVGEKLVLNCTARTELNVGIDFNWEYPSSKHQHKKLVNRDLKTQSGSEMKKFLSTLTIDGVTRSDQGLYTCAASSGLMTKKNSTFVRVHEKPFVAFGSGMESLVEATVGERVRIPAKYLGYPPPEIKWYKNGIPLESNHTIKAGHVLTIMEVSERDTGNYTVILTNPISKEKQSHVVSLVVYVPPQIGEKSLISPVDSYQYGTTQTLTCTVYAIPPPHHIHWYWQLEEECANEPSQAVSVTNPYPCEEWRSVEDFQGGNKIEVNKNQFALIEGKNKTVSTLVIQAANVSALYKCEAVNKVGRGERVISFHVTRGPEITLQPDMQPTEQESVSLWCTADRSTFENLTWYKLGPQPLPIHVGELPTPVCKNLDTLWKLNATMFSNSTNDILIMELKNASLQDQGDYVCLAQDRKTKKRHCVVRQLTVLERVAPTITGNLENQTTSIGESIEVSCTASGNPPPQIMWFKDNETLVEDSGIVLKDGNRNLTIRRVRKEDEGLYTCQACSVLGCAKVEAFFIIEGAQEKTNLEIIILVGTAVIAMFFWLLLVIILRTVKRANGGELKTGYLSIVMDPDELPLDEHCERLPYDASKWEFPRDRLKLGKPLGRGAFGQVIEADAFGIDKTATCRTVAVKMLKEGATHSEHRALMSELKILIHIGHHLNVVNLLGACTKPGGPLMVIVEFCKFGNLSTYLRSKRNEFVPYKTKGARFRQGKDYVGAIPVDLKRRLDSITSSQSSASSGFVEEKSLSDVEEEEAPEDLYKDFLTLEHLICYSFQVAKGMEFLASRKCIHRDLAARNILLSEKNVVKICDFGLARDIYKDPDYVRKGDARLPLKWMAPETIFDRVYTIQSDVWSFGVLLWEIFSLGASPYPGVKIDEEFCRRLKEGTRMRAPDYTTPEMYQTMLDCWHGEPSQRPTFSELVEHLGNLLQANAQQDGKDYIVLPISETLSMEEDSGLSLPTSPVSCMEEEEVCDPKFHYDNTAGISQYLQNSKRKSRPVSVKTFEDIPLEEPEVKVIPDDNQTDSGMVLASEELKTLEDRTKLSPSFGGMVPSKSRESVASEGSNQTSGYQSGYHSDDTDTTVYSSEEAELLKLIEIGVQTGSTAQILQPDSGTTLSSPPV
In words: VEGFR2 kinase inhibition (residual ATP luminescence). The test is classed as biochemical. Conditions: 1.5 uM ATP, 60 min 37° C. The protocol: as §1
(§3) EGFR and VEGFR2 kinase assays were similarly performed. EGFR (76 ng/well, Panvera/Invitrogen) was combined with 12.5 mg/ml poly(glu4tyr) (Sigma) and 2.5 uM ATP. VEGFR2 (14.1 U/well, Cell Signaling/ProQinase) was used with 0.3 mg/ml poly(glu4tyr) and 1.5 uM ATP. Both were incubated for 60 minutes at 37° C., and the residual ATP was measured via luminescence, per the procedure described above.

Another test has as its target Abl (Homo sapiens, UniProt P00519). In words: Abl kinase inhibition. Format: biochemical. The protocol: as §1
Src Family of Kinases, abl, and Ret
as §2

Another test addresses T3, Yes (Homo sapiens, UniProt P07947).
T3 construct: purchased Panvera/Invitrogen
In words: Yes kinase inhibition (KinaseGlo). Format: biochemical. The protocol: as §1, §2
For orientation: Kinase-Glo reads ATP consumption through a luciferase reaction.

Another test deals with T4, Lck (Homo sapiens, UniProt P06239).
T4 construct: purchased Panvera/Invitrogen
T4 sequence (P06239 whole entry): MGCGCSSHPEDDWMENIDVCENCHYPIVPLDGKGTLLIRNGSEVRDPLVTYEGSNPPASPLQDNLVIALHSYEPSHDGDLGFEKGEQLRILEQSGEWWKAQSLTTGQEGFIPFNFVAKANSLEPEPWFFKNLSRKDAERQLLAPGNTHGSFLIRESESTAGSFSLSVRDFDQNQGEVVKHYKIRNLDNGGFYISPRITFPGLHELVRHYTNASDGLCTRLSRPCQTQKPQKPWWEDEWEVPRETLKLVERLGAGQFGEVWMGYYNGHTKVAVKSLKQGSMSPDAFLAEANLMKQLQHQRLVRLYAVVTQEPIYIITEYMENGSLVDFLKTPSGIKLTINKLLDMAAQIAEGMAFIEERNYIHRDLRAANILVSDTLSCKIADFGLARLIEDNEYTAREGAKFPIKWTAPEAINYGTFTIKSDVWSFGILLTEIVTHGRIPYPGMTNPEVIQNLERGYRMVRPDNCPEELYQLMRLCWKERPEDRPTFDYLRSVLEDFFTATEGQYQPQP
In words: Lck kinase inhibition (KinaseGlo). The test is classed as biochemical. The protocol: as §1, §2

In the next test the target is T5, EGFR (Homo sapiens, UniProt P00533).
T5 construct: purchased Panvera/Invitrogen
In words: EGFR kinase inhibition (residual ATP). Format: biochemical. Conditions: 2.5 uM ATP, 60 min 37° C. The protocol: as §1, §3

Test [5] deals with human retinal micro vascular endothelial cells (hRMVEC). In words: Cellular data using hRMVEC. Format: cell-based. Conditions: Endothelial cell.

T3 sequence (P07947 whole entry): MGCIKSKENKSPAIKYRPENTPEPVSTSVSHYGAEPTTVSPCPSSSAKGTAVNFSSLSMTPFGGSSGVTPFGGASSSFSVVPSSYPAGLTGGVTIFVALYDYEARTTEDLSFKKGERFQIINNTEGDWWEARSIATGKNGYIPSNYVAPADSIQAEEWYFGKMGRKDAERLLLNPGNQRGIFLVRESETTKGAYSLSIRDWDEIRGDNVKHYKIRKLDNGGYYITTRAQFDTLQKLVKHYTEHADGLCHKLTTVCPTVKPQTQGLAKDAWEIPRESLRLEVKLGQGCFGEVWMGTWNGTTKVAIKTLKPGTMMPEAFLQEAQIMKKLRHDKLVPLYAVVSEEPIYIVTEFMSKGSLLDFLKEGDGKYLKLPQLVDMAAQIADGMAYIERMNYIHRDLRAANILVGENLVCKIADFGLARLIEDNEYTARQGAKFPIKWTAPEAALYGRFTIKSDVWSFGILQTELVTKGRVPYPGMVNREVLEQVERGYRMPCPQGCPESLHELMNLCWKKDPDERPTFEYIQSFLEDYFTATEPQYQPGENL
Chain of Abl (P00519 whole entry, species assumed): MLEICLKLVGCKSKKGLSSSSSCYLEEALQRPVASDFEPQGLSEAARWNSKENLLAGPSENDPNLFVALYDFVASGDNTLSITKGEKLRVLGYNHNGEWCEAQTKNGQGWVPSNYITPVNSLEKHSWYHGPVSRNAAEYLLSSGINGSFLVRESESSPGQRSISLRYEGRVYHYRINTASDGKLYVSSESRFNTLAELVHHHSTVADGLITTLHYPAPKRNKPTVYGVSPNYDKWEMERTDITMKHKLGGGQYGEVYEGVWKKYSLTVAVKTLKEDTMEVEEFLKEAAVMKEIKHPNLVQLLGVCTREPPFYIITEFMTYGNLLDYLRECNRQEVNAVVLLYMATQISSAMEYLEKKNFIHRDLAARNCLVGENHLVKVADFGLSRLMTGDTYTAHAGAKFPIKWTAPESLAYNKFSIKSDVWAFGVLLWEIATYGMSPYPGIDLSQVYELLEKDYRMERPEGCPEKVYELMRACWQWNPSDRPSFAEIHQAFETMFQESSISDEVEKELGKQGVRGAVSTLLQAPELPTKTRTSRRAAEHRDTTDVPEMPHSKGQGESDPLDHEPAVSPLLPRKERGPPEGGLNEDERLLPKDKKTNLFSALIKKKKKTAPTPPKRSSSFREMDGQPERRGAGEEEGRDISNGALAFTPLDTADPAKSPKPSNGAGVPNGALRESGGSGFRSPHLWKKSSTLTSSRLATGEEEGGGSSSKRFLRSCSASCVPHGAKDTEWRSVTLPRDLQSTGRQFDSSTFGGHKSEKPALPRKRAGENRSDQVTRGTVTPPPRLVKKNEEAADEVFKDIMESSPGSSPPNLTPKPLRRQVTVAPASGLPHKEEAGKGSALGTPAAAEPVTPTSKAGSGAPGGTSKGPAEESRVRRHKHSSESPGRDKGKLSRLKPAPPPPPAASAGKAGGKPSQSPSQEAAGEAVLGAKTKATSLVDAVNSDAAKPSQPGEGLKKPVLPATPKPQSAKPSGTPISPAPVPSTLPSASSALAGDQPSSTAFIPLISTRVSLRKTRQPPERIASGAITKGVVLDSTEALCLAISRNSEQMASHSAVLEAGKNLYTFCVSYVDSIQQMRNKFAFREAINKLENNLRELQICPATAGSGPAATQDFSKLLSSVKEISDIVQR

Take `O=C(Nc1ccc(Cl)c(C(=O)Nc2cnc(Nc3ccc(OCCN4CCCC4)cc3)nc2)c1)c1cccc(C(F)(F)F)c1` [Compound XL, 2-Chloro-N-{2-[4-(2-Pyrrolidin-1-yl-ethoxy)-Phenylamino]-Pyrimidin-5-yl}-5-(3-Trifluoromethyl-Benzoylamino)-Benzamide]: in test [1], the EI came to 0.110. In addition, in test [2] (0.1% solution, twice per day, 5 days, P=0.009), the “reduction in retinal vascularization compared to vehicle” value came out at 29%. In test [2] (1% of compound XL (table), topical bid × 5), this molecule came in with a % Reduction vs. Vehicle (retinal vascularization) of 29%. For the same molecule, the “Area (mm^2), total retinal vascular area” value in test [2] (1% of compound XL (table), topical bid × 5, vehicle 8.269) came out at 6.429 mm^2. Moreover, the “Edema Index” value in [3] is recorded as 2.3. Moreover, the “Area (μm^2) of choroidal neovascularization” value in test [4] was 9,388 μm^2.
Take `O=C(Nc1ccc(Cl)c(C(=O)Nc2cnc(Nc3ccc(OCCN4CCCC4)cc3)nc2)c1)c1cccc(C(F)(F)F)c1` [drawing 171]: the IC50 at human c-Src turned out to be 1.2 nM; against VEGFR2, 0.8 nM.
On to `O=C(Nc1ccc(Cl)c(C(=O)Nc2cnc(Nc3ccccc3)nc2)c1)c1cccc(C(F)(F)F)c1` [drawing 181], for which the figures for the 50% inhibitory concentration (IC50) against human c-Src and at VEGFR2 were 4.5 nM and 9.6 nM, respectively.
Consider `Cc1ccc(Nc2nccc3ccccc23)cc1C(=O)Nc1cnc(Nc2cccc(OCCN3CCCC3)c2)nc1` [drawing 186], for which the figures for the IC50 against human c-Src and at VEGFR2 were 23.3 nM and 3350 nM, respectively.
Consider `O=C(Nc1cccc(C(F)(F)F)c1)Nc1ccc(Cl)c(C(=O)Nc2cnc(Nc3ccc(OCCN4CCCC4)cc3)nc2)c1` [drawing 202], for which the IC50 on human c-Src is 2.2 nM; against VEGFR2, 7.1 nM.
In the case of `O=C(Nc1ccc(Cl)c(C(=O)Nc2cnc(Nc3cccnc3)nc2)c1)c1cccc(C(F)(F)F)c1` [drawing 211], the values for the concentration for half-maximal inhibition (IC50) against human c-Src and on VEGFR2 were 4.7 nM and 5.4 nM, respectively.
`O=C(Nc1ccc(Cl)c(C(=O)Nc2cnc(Nc3cccc(OCCN4CCCC4)c3)nc2)c1)c1cccc(C(F)(F)F)c1` [drawing 225]: the IC50 at Abl is 1.1 nM; at Yes, 0.52 nM; on Lck it was 1.7 nM.
Take `Cc1ccc(NC(=O)c2cccc(C(F)(F)F)c2)cc1C(=O)Nc1cnc(Nc2cccc(OCCN3CCCC3)c2)nc1` [drawing 226]: the IC50 stood at 0.93 nM against Yes and 3.8 nM against Lck.
Regarding `O=C(Nc1cnc(Nc2cccc(OCCN3CCCC3)c2)nc1)c1cc(NC(=O)C(F)(F)F)ccc1Cl` [drawing 227], on Abl, inhibition was half-maximal at 154 nM (IC50).
Regarding `O=C(Nc1ccc(Cl)c(C(=O)Nc2cnc(Nc3ccc(S(=O)(=O)C4CCNCC4)cc3)nc2)c1)c1cccc(C(F)(F)F)c1` [drawing 228], the half-inhibitory concentration (IC50) turned out to be 0.2 nM against Abl, 0.9 nM at Yes and 4.5 nM at Lck.
The matching figures for `Cc1ccc(NC(=O)c2cccc(C(F)(F)F)c2)cc1C(=O)Nc1cnc(Nc2ccc(OCCN3CCCC3)cc2)nc1` [drawing 229]: 5.5 nM, 1.3 nM and 5.1 nM.
As to `O=C(Nc1ccc(Cl)c(C(=O)Nc2cnc(Nc3ccc(OCCN4CCCC4)cc3)nc2)c1)c1cccc(C(F)(F)F)c1` [drawing 230], the IC50 on EGFR was determined as 98 nM; at Abl it was 1.8 nM; against Yes, 0.46 nM; on Lck, 2.2 nM.
In the case of `O=C(Nc1ccc(Cl)c(C(=O)Nc2cnc(Nc3ccc(CCCN4CCCC4)cc3)nc2)c1)c1cccc(C(F)(F)F)c1` [drawing 231], it took 3.8 nM to reach half-maximal inhibition on Abl (IC50).
Consider `Cc1ccc(NC(=O)C(F)(F)F)cc1C(=O)Nc1cnc(Nc2cccc(OCCN3CCCC3)c2)nc1` [drawing 232], for which half-maximal inhibition at Abl (IC50) required 126 nM.
For the molecule `O=C(Nc1ccc(Cl)c(C(=O)Nc2cnc(Nc3ccc(CCCN4CCCC4)cc3)nc2)c1)c1cccc(C(F)(F)F)c1` [drawing 233], on EGFR, the IC50 came out at 124 nM.
For the molecule `O=C(Nc1ccc(Cl)c(C(=O)Nc2cnc(Nc3ccccc3)nc2)c1)c1cccc(C(F)(F)F)c1` [drawing 234], the IC50 came to 4.2 nM against Yes and 32.2 nM on Lck.
Take `Cc1ccc(Nc2nccc3ccccc23)cc1C(=O)Nc1cnc(Nc2cccc(OCCN3CCCC3)c2)nc1` [drawing 236]: the IC50 against Yes stood at 22.2 nM; on Lck, 309 nM.
Turning to `O=C(Nc1cccc(C(F)(F)F)c1)Nc1ccc(Cl)c(C(=O)Nc2cnc(Nc3ccc(OCCN4CCCC4)cc3)nc2)c1` [drawing 237], the half-maximal inhibitory concentration (IC50) against EGFR worked out at 558 nM; against Yes, 2.5 nM; against Lck, 22.4 nM.
As to `O=C(Nc1ccc(Cl)c(C(=O)Nc2cnc(Nc3cccc(OCCN4CCCC4)c3)nc2)c1)c1cccc(C(F)(F)F)c1` [drawing 238], the EC50 in test [5] was found to be 69 nM.
Same read-out and setting: as for `O=C(Nc1ccc(Cl)c(C(=O)Nc2cnc(Nc3ccc(S(=O)(=O)C4CCNCC4)cc3)nc2)c1)c1cccc(C(F)(F)F)c1` [drawing 239], the figure is 1150 nM.
For the molecule `Cc1ccc(NC(=O)c2cccc(C(F)(F)F)c2)cc1C(=O)Nc1cnc(Nc2ccc(OCCN3CCCC3)cc2)nc1` [drawing 240], the concentration giving a half-maximal response (EC50) in [5] stood at 199 nM. This EC50 lies about 5.8-fold lower than the previous one.
Consider `O=C(Nc1ccc(Cl)c(C(=O)Nc2cnc(Nc3ccc(OCCN4CCCC4)cc3)nc2)c1)c1cccc(C(F)(F)F)c1` [drawing 241], for which the EC50 in [5] came to 30 nM.
On to `O=C(Nc1ccc(Cl)c(C(=O)Nc2cnc(Nc3ccc(CCCN4CCCC4)cc3)nc2)c1)c1cccc(C(F)(F)F)c1` [drawing 242], for which the concentration for a half-maximal effect (EC50) in test [5] is 41 nM.
For the molecule `O=C(Nc1ccc(Cl)c(C(=O)Nc2cnc(Nc3cccnc3)nc2)c1)c1cccc(C(F)(F)F)c1` [drawing 243], the EC50 in [5] was determined as 68 nM.

The term IC50 denotes the concentration that gives 50% inhibition. Lower therefore signals higher potency. The term EC50 denotes the concentration needed to bring the measured effect to its halfway point. A lower EC50 goes with an effect from little substance.
